Measurements as given in US20100267561A1, “HERBICIDAL PYRIDAZINONE DERIVATIVES” (priority 2007, published 2010).

Key:
Type in all cases: in vivo
[1] = tested on: green foxtail (Setaria viridis); experiment: Test B pre-/postemergence plant response
Summary of the method: (§1)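 Preemergence and postemergence (plants 2-18 cm, 1- to 4-leaf stage) applications used test chemicals in a non-phytotoxic solvent with surfactant. Plants were held in a greenhouse 13 to 15 days, then rated visually against controls on a 0-100 scale (0 no effect, 100 complete control).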

[2] = tested on: cocklebur (Xanthium strumarium); experiment: Test B pre-/postemergence plant response; settings: for Cocklebur plant response rating: 8 g ai/ha
Summary of the method: as §1

[3] = tested on: eastern black (E.B.) nightshade (Solanum ptycanthum); experiment: Test B pre-/postemergence plant response; settings: Preemergence; for Nightshade, E. B. plant response rating: scale 0 to 100
Summary of the method: as §1

[4] = tested on: wheat (Triticum aestivum); experiment: Test B pre-/postemergence plant response
Summary of the method: as §1

[5] = tested on: johnsongrass (Sorghum halepense); experiment: Test B pre-/postemergence plant response
Summary of the method: as §1

[6] = tested on: Russian thistle (Salsola iberica); experiment: Test B pre-/postemergence plant response; settings: Preemergence; for Russian Thistle plant response rating: scale 0 to 100
Summary of the method: as §1

[7] = tested on: morningglory (Ipomoea coccinea); experiment: Test B pre-/postemergence plant response
Summary of the method: as §1

soybean (Glycine max) = experiment: Test B pre-/postemergence plant response
Summary of the method: as §1

[8] = tested on: goosegrass (Eleusine indica); experiment: Test B pre-/postemergence plant response
Summary of the method: as §1

[9] = tested on: Italian ryegrass (Lolium multiflorum); experiment: Test B pre-/postemergence plant response
Summary of the method: as §1

[10] = tested on: large crabgrass (Digitaria sanguinalis); experiment: Test B pre-/postemergence plant response
Summary of the method: as §1

[11] = tested on: bermudagrass (Cynodon dactylon); experiment: Test B pre-/postemergence plant response; settings: for Bermudagrass plant response rating: 8 g ai/ha
Summary of the method: as §1

[12] = tested on: surinam grass (Brachiaria decumbens); experiment: Test B pre-/postemergence plant response
Summary of the method: as §1

[13] = tested on: winter barley (Hordeum vulgare); experiment: Test B postemergence plant response; settings: for Plant response rating, Barley: Postemergence, scale 0 to 100, 0 no effect, 100 complete control
Summary of the method: (§2)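 Compounds applied after emergence to 2–18 cm plants; response read visually 13–15 days later on 0 (none) to 100 (complete control); a dash marks no result.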

[14] = tested on: chickweed (Stellaria media); experiment: Test B postemergence plant response; settings: for Plant response rating, Chickweed: Postemergence
Summary of the method: as §2

[15] = tested on: windgrass (Apera spica-venti); experiment: Test B postemergence plant response; settings: for Windgrass plant response rating: postemergence, 0-100 scale; for Plant response rating, Windgrass: Postemergence
Summary of the method: as §2

[16] = 8 g ai/ha, postemergence, 0-100 scale
[17] = Postemergence, 16 g ai/ha, scale 0 to 100
[18] = Postemergence, 31 g ai/ha, scale 0 to 100
[19] = Postemergence, 62 g ai/ha, scale 0 to 100, 0 no effect, 100 complete control
[20] = Preemergence, 31 g ai/ha, scale 0 to 100 (0 no effect, 100 complete control)
[21] = Preemergence, 62 g ai/ha, 0 to 100 scale, 0 no effect, 100 complete control
[22] = Preemergence, 8 g ai/ha, scale 0 to 100
[23] = Preemergence, 16 g ai/ha, scale 0 to 100
[24] = Preemergence, 16 g ai/ha, scale 0 to 100 (0 no effect, 100 complete control)
[25] = 31 g ai/ha, scale 0 to 100 (0 no effect, 100 complete control)
[26] = 62 g ai/ha, 0 to 100 scale, 0 no effect, 100 complete control
[27] = 16 g ai/ha, postemergence, 0-100 scale
[28] = 62 g ai/ha, scale 0 to 100, 0 no effect, 100 complete control

CCc1cc(-c2ccc(Br)cc2)nn1-c1c(O)c(C)nn(C)c1=O [Compound 74]
Foxtail, Green plant response rating [1, 16]: 85
Plant response rating, Foxtail, Green [1, 17]: 95
Plant response rating, Foxtail, Green [1, 18]: 98
Plant response rating, Foxtail, Green [1, 19]: 100
Plant response rating, Foxtail, Green [1, 20]: 100
Plant response rating, Foxtail, Green [1, 21]: 100
Foxtail, Green plant response rating [1, 22]: 100
Foxtail, Green plant response rating [1, 23]: 100
Cocklebur plant response rating ([2]; postemergence, 0-100 scale): 0
Plant response rating, Cocklebur [2, 17]: 0
Plant response rating, Cocklebur [2, 18]: 0
Plant response rating, Cocklebur [2, 19]: 0
Plant response rating, Cocklebur [2, 24]: 0
Plant response rating, Cocklebur [2, 20]: 0
Plant response rating, Cocklebur [2, 21]: 0
Cocklebur plant response rating ([2]; Preemergence, scale 0 to 100): 0
Plant response rating, Nightshade, E. B. [3, 25]: 0
Plant response rating, Nightshade, E. B. [3, 26]: 65
Nightshade, E. B. plant response rating ([3]; 8 g ai/ha): 0
Nightshade, E. B. plant response rating ([3]; 16 g ai/ha): 0
Wheat plant response rating [4, 16]: 40
Wheat plant response rating [4, 27]: 70
Plant response rating, Wheat [4, 18]: 90
Plant response rating, Wheat [4, 19]: 95
Plant response rating, Wheat [4, 20]: 25
Plant response rating, Wheat [4, 21]: 85
Wheat plant response rating [4, 23]: 0
Johnsongrass plant response rating [5, 16]: 98
Johnsongrass plant response rating [5, 27]: 98
Plant response rating, Johnsongrass [5, 18]: 100
Plant response rating, Johnsongrass [5, 19]: 100
Plant response rating, Johnsongrass [5, 20]: 90
Plant response rating, Johnsongrass [5, 21]: 100
Johnsongrass plant response rating [5, 22]: 70
Johnsongrass plant response rating [5, 23]: 85
Plant response rating, Russian Thistle [6, 25]: 0
Plant response rating, Russian Thistle [6, 26]: 0
Russian Thistle plant response rating ([6]; 8 g ai/ha): 0
Russian Thistle plant response rating ([6]; 16 g ai/ha): 0
Morningglory plant response rating [7, 16]: 0
Morningglory plant response rating [7, 27]: 0
Plant response rating, Morningglory [7, 18]: 0
Plant response rating, Morningglory [7, 19]: 0
Plant response rating, Morningglory [7, 20]: 0
Plant response rating, Morningglory [7, 21]: 0
Morningglory plant response rating [7, 22]: 0
Morningglory plant response rating [7, 23]: 0
Soybean plant response rating (soybean (Glycine max); [16]): 0
Soybean plant response rating (soybean (Glycine max); [27]): 0
Plant response rating, Soybean (soybean (Glycine max); [18]): 0
Plant response rating, Soybean (soybean (Glycine max); [19]): 0
Plant response rating, Soybean (soybean (Glycine max); [20]): 0
Plant response rating, Soybean (soybean (Glycine max); [21]): 0
Soybean plant response rating (soybean (Glycine max); [22]): 0
Soybean plant response rating (soybean (Glycine max); [23]): 0
Goosegrass plant response rating [8, 16]: 60
Goosegrass plant response rating [8, 27]: 65
Plant response rating, Goosegrass [8, 18]: 75
Plant response rating, Goosegrass [8, 19]: 85
Plant response rating, Goosegrass [8, 20]: 100
Plant response rating, Goosegrass [8, 21]: 100
Goosegrass plant response rating [8, 22]: 95
Goosegrass plant response rating [8, 23]: 98
Ryegrass, Italian plant response rating [9, 16]: 98
Ryegrass, Italian plant response rating [9, 27]: 100
Plant response rating, Ryegrass, Italian [9, 18]: 100
Plant response rating, Ryegrass, Italian [9, 19]: 100
Plant response rating, Ryegrass, Italian [9, 20]: 100
Plant response rating, Ryegrass, Italian [9, 21]: 100
Ryegrass, Italian plant response rating [9, 22]: 60
Ryegrass, Italian plant response rating [9, 23]: 98
Crabgrass, Large plant response rating [10, 16]: 80
Plant response rating, Crabgrass, Large [10, 17]: 90
Plant response rating, Crabgrass, Large [10, 18]: 98
Plant response rating, Crabgrass, Large [10, 19]: 100
Plant response rating, Crabgrass, Large [10, 20]: 100
Plant response rating, Crabgrass, Large [10, 21]: 100
Crabgrass, Large plant response rating [10, 22]: 65
Crabgrass, Large plant response rating [10, 23]: 95
Bermudagrass plant response rating ([11]; postemergence, 0-100 scale): 20
Plant response rating, Bermudagrass [11, 17]: 85
Plant response rating, Bermudagrass [11, 18]: 95
Plant response rating, Bermudagrass [11, 19]: 98
Bermudagrass plant response rating ([11]; Preemergence, scale 0 to 100 (0 no effect, 100 complete control)): 100
Plant response rating, Bermudagrass [11, 24]: 100
Plant response rating, Bermudagrass [11, 20]: 100
Plant response rating, Bermudagrass [11, 21]: 100
Surinam Grass plant response rating [12, 16]: 85
Surinam Grass plant response rating [12, 27]: 100
Plant response rating, Surinam Grass [12, 18]: 100
Plant response rating, Surinam Grass [12, 19]: 100
Plant response rating, Surinam Grass [12, 20]: 100
Plant response rating, Surinam Grass [12, 21]: 100
Surinam Grass plant response rating [12, 22]: 100
Surinam Grass plant response rating [12, 23]: 100
Barley plant response rating [13, 16]: 20
Plant response rating, Barley ([13]; 16 g ai/ha): 40
Plant response rating, Barley ([13]; 31 g ai/ha): 95
Plant response rating, Barley ([13]; 62 g ai/ha): 95
Chickweed plant response rating [14, 16]: 0
Plant response rating, Chickweed ([14]; 16 g ai/ha, scale 0 to 100): 0
Plant response rating, Chickweed ([14]; 31 g ai/ha, scale 0 to 100): 0
Plant response rating, Chickweed [14, 28]: 0
Windgrass plant response rating ([15]; 8 g ai/ha): 85
Windgrass plant response rating ([15]; 16 g ai/ha): 90
Plant response rating, Windgrass ([15]; 31 g ai/ha, scale 0 to 100): 100
Plant response rating, Windgrass [15, 28]: 100
